US11786517B2, “Methods of treatment using a JAK inhibitor compound” (THERAVANCE BIOPHARMA R&D IP, LLC, priority 2017, dated 2023)

Experiments:
[1] = test system: airway neutrophils; test: Murine model of LPS/G-CSF/IL-6/IFNγ cocktail-induced airway neutrophilic inflammation; assay type: in vivo, Balb/C mice; conditions: mouse, 1.0 mg/mL 50 μL oropharyngeal aspiration, BALF at twenty-four hours
Description: Airway neutrophilia is a hallmark of a range of respiratory disease in humans. Compound 1 was tested in a model of neutrophilic airway inflammation using a LPS/G-CSF/IL-6/IFNγ cocktail to induce airway neutrophilia.
Seven- to nine-week old male Balb/C (wildtype) mice from Jackson Laboratory were used in the study. On the day of study, animals were lightly anesthetized with isoflurane and administered either vehicle or test compound (1.0 mg/mL, 50 μL total volume over several breaths) via oropharyngeal aspiration. Animals were placed in lateral recumbency post dose and monitored for full recovery from anesthesia before being returned to their home cage. One hour later, animals were once again briefly anesthetized and challenged with either vehicle or LPS; 0.01 mg/kg/G-CSF; 5 μg/IL-6; 5 μg/IFNγ; 5 μg (100 μL total volume) via oropharyngeal aspiration (OA). Twenty-four hours after the LPS/G-CSF/IL-6/IFNγ cocktail administration, bronchoalveolar lavage fluid (BALF) was collected and neutrophils were counted.

[2] = test system: IL-6 induced pSTAT3 in rat retina/choroid; test: Pharmacodynamic assay: inhibition of IL6-induced pSTAT3 in rats; assay type: in vivo, Female Lewis rats; conditions: 3 day pre-treatment
Description: The ability of a single intravitreal administration of test compound to inhibit IL-6 induced pSTAT3 was measured in rat retina/choroid homogenates.
Suspension formulations were prepared by combining crystalline compound 1 of Example 1 with 0.5% hydroxypropyl methylcellulose (HPMC E5 LV), 0.02% Tween 80, and 0.9% sodium chloride in purified water to attain target concentrations of 3 mg/mL and 10 mg/mL.
Female Lewis rats were intravitreally (IVT) dosed (5 μL per eye) with the suspension formulations or with the drug vehicle. Three days later, IL-6 (Peprotech; 0.1 mg/mL; 5 μL per eye) or vehicle was intravitreally administered to induce pSTAT3. Ocular tissues were dissected one hour after the second IVT injection with IL-6. The retina/choroid tissues were homogenized and pSTAT3 levels were measured using an ELISA (Cell Signaling Technology). The percent inhibition of IL-6-induced pSTAT3 was calculated in comparison to the vehicle/vehicle and vehicle/IL-6 groups. Inhibition of greater than 100% reflects a reduction of pSTAT3 levels to below those observed in the vehicle/vehicle group.

[3] = test system: IFNγ induced IP-10 protein levels; test: Pharmacodynamic assay: inhibition of IFNγ-induced IP-10 in rabbits; assay type: in vivo, New Zealand White rabbits
Description: The ability of a single intravitreal administration of test compound to inhibit interferon-gamma (IFNγ) induced IP-10 protein levels was measured in rabbit vitreous and retina/choroid tissues.
Solution formulations at concentrations of 1 mg/mL and 4 mg/mL of compound 1 of Example 1 were prepared as in Assay 8. A suspension formulation was prepared by combining crystalline compound 1 of Example 1 with 0.5% hydroxypropyl methylcellulose (HPMC E5), 0.02% Tween 80, and 9 mg/mL sodium chloride in purified water to attain a target concentration of 20 mg/mL.
Male, New Zealand White rabbits (Liveon Biolabs, India) were used for the studies. Animals were acclimated after arrival at the research facilities (Jubilant Biosys Ltd., India). Each rabbit was given a total of two intravitreal (IVT) injections with a total dose volume of 50 μL per eye. The first IVT injection (45 μL per eye) delivered test compound or vehicle at a prescribed time point (i.e. 24 hours for the solution formulations or 1 week for the suspension formulation). The second IVT injection (5 μL per eye) delivered IFNγ (1 μg/eye; Stock solution 1 mg/mL; Kingfisher Biotech) or vehicle for the induction of IP-10. In brief, on the day of the injections, rabbits were anesthetized with an intramuscular injection of ketamine (35 mg/kg) and xylazine (5 mg/kg). Once deeply anesthetized, each eye was rinsed with sterile saline and IVT injections were performed using a 0.5 mL insulin syringe (50 units=0.5 mL) with a 31-gauge needle at the supra-nasal side of the both eyes by marking the position with a Braunstein fixed caliper (2¾″) 3.5 mm from the rectus muscle and 4 mm from the limbus.
Tissues were collected 24 hours after the second IVT injection with IFNγ. Vitreous humor (VH) and retina/choroid tissues (R/C) were collected and homogenized, and IP-10 protein levels were measured using a rabbit CXCL10 (IP-10) ELISA kit (Kingfisher Biotech). The percent inhibition of IFNγ-induced IP-10 was calculated in comparison to the vehicle/vehicle and vehicle/IFNγ groups.

[4] = test system: BALF eosinophils; test: Murine model of Alternaria alternata-induced eosinophilic inflammation of the lung; assay type: in vivo, C57 mice; conditions: mouse, oropharyngeal aspiration 0.1-1.0 mg/mL, forty-eight hours after alternaria challenge
Description: Airway eosinophilia is a hallmark of human asthma. Alternaria alternata is a fungal aeroallergen that can exacerbate asthma in humans and induces eosinophilic inflammation in the lungs of mice (Havaux et al. Clin Exp Immunol. 2005, 139(2):179-88).
Seven- to nine-week old male C57 mice from Taconic were used in the study. On the day of study, animals were lightly anesthetized with isoflurane and administered either vehicle or test compound (0.1-1.0 mg/mL, 50 μL total volume over several breaths) via oropharyngeal aspiration. Animals were placed in lateral recumbency post dose and monitored for full recovery from anesthesia before being returned to their home cage. One hour later, animals were once again briefly anesthetized and challenged with either vehicle or alternaria extract (200 ug total extract delivered, 50 μL total volume) via oropharyngeal aspiration before being monitored for recovery from anesthesia and returned to their home cage. Forty-eight hours after alternaria administration, bronchoalveolar lavage fluid (BALF) was collected and eosinophils were counted in the BALF using the Advia 120 Hematology System (Siemens).
Activity in the model is evidenced by a decrease in the level of eosinophils present in the BALF of treated animals at forty-eight hours compared to the vehicle treated, alternaria challenged control animals. […]

Compound: CCc1cc(O)c(F)cc1-c1ccc2c(-c3nc4c([nH]3)CCN(C3CCN(C)CC3)C4)n[nH]c2c1 [compound 1, 5-ethyl-2-fluoro-4-(3-(5-(1-methylpiperidin-4-yl)-4,5,6,7-tetrahydro-1H-imidazo[4,5-c]pyridin-2-yl)-1H-indazol-6-yl)phenol]
- reduction of the airway neutrophils compared to vehicle treated mice [1]: 84%
- inhibition of IL-6-induced pSTAT3 ([2]; 15 μg intravitreal suspension): 33%
- inhibition of IL-6-induced pSTAT3 ([2]; 50 μg intravitreal suspension): 109%
- inhibition of IFNγ-induced IP-10 ([3]; rabbit retina/choroid tissue, 45 μg solution, 24 hour pre-treatment): 86
- inhibition of IFNγ-induced IP-10 ([3]; rabbit retina/choroid tissue, 180 μg solution, 24 hour pre-treatment): 100%
- inhibition of IFNγ-induced IP-10 ([3]; rabbit retina/choroid tissue, crystalline suspension 20 mg/mL, 1 week pre-treatment): 100%
- inhibition of IFNγ-induced IP-10 ([3]; rabbit vitreous humor, 45 μg solution, 24 hour pre-treatment): 70%
- inhibition of IFNγ-induced IP-10 ([3]; rabbit vitreous humor, 180 μg solution, 24 hour pre-treatment): 91%
- inhibition of IFNγ-induced IP-10 ([3]; rabbit vitreous humor, crystalline suspension 20 mg/mL, 1 week pre-treatment): 100%
- inhibition of BALF eosinophil counts [4]: about 88%
